Assay results reported in the METLIN SMRT retention time set (Domingo-Almenara et al. 2019).

Test: gradient 5% acetonitrile 3 min, to 50% in 2 min, to 85% in 15 min, held 3 min, 100 µL/min
Details: column: Zorbax Extend-C18 2.1 x 50 mm; eluents: water / acetonitrile, 0.1% formic acid
How it was run: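 Using water and acetonitrile that each contained 0.1% formic acid, mixtures of ~100 pure standards were separated at 100 μL/min on a Zorbax Extend-C18 column (2.1 × 50 mm, 1.8 μm). The HPLC fed a quadrupole time-of-flight mass spectrometer working in positive and negative ionization mode, with dead and dwell volumes of 40 μL and 900 μL. Data were acquired over 3 months. Retention time was read from computationally picked adduct peaks after manual inspection of each.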

Row | SMILES | RP-LC retention time [s]
1 | O=C(c1ccoc1)N1CCN(c2cc(-c3ccc(Cl)cc3)[nH]n2)CC1 | 774
2 | Cc1ccc(S(=O)(=O)N2C(=O)CCC2C(=O)NC2CCCCCCC2)cc1 (stereo not drawn) | 1010
3 | CCc1ccc(-c2cc(C)no2)cc1S(=O)(=O)N1CCN(c2ccccn2)CC1 | 757
4 | CC(C)c1nnc2n1C(C(=O)NCC(F)F)CCCC2 (stereo not drawn) | 580
5 | Cc1nc(-c2cc3cccc(C)c3nc2N2CCN(c3ccccc3F)CC2)no1 | 733
6 | CCN(CC)C(=O)Cn1c(C(F)(F)F)nc2cc3c(cc21)OCCO3 | 811
7 | O=C(NCC1(CO)CC1)c1cccc(C(F)(F)F)c1 | 691
8 | Cc1ccc(S(=O)(=O)N2CCN(c3ccc(-c4ccc(F)cc4)nn3)CC2)s1 | 870
9 | O=C(c1ccsc1)N1CCC2(CC1)NC(=O)N(Cc1cccc(Cl)c1)C2=O | 816
10 | CCOC(=O)C1=C(CNC2CCCCC2)NC(=O)NC1c1ccc(C)cc1 (stereo not drawn) | 662
11 | Cc1ccc(CNC(=O)CN2C(=O)CCCc3cc(S(=O)(=O)N4CCCC4)ccc32)cc1 | 824
12 | c1ccc2c(-c3nc(C4CC4)no3)nnc(NC3CCCC3)c2c1 | 725
13 | O=C(CCn1ccc2cc(S(=O)(=O)N3CCCCC3)ccc21)N1CCN(c2ccccn2)CC1 | 680
14 | O=C(c1ccccn1)N1CC(n2cc(COc3ccncc3)nn2)C1 | 566
15 | CC(C)CCNC(=O)c1cc2c(s1)N(C)CCC2 | 928
16 | O=C(NC1CCN(c2ccc(N3CCCCCC3)nn2)CC1)c1ccc(F)c(F)c1 | 682
17 | CN1C(=O)c2cc(C(=O)NCc3cccc(F)c3)nn2CC1(C)C(=O)NC1CCCC1 (stereo not drawn) | 750
18 | O=C(c1cc(S(=O)(=O)N2CCCC(C(=O)N3CCOCC3)C2)c[nH]1)N1CCCCCC1 (stereo not drawn) | 696
19 | O=C(CN1C(=O)CSc2ccc(C(=O)N3CCCCC3)cc21)NCCC1=CCCCC1 | 870

Row | SMILES | RP-LC retention time [s]
20 | COc1ccc(C2CC(=O)N(c3ccc(F)cc3)C(=O)C2)cc1OC | 801
21 | O=C(c1ccc(F)c(F)c1)N1CCN(c2cc(-c3ccc(Cl)cc3)[nH]n2)CC1 | 900
22 | COCCNc1c(-c2ccc(F)cc2)nc2sc(C(=O)N3CCN(C)CC3)c(C)n12 | 569
23 | O=C(c1ccn[nH]1)N1CCCC(Cn2c(C3CC3)nc3cccnc32)C1 (stereo not drawn) | 578
24 | CCOC(=O)NCC1CCN(S(C)(=O)=O)CC1 | 603
25 | OC1(Cc2ccccc2)CCNCC1 | 612
26 | CCOCCCNC(=O)c1ccc(-c2ccc(N3CCCC3)nn2)cc1 | 558
27 | Cc1c(F)cccc1NC(=O)N(C)CC1CCOC1 (stereo not drawn) | 745
28 | CN1C(=O)C2CCCCN2c2ccc(C(=O)NCCCN3CCCCCC3)cc21 (stereo not drawn) | 627
29 | O=C(Nc1ccc2c(c1)OCO2)NC1CCCC(OC(=O)Nc2ccc(F)cc2)C1 (stereo not drawn) | 825
30 | COc1ccc(Cc2nc(-c3cccc(-c4ccn[nH]4)c3)no2)cc1OC | 830
31 | COc1cccc(C(=O)N2C[C@@H]3C[C@H](NC(=O)c4cccs4)[C@H]2C3)c1OC | 679
32 | COc1ccc(C(=O)N2CCC3(CC2)N=C(c2ccc(Cl)cc2)NO3)cc1OC | 784
33 | CCCN1C(=O)COc2cc(-c3noc(C(=O)NC4CCCCCC4)n3)ccc21 | 1150
34 | O=C(C1CCCN(c2ncnc3c2nc2n3CCCCC2)C1)N1CCN(C2CCCCC2)CC1 (stereo not drawn) | 604
35 | Cc1nnc(N2CCC(C(=O)NCCN3CCOCC3)CC2)c2nn(-c3ccc(Cl)cc3)c(C)c12 | 571
36 | Cc1ccc(C)c(N2CCN(C(=O)Cn3cnc4nc5c(cc4c3=O)CCCC5)CC2)c1 | 893
37 | CCc1ccc(NC(=O)C2CCCN(c3ncnc4c3nc3n4CCCCC3)C2)cc1 (stereo not drawn) | 824
38 | COc1cccc(NC(=O)N2CCC3(C2)C(=O)N(C)c2ccc(OC)cc23)c1 (stereo not drawn) | 746

Row | SMILES | RP-LC retention time [s]
39 | CCC(C)NS(=O)(=O)c1cc(-c2cc(C(F)(F)F)on2)sc1C (stereo not drawn) | 1140
40 | CCc1noc(-c2ccc(-n3ncc(C(=O)N4CCC(C)CC4)c3C)nc2)n1 | 1020
41 | CCOc1cc2c(cc1OCC)C1C(C(=O)NCCOC)c3ccccc3C(=O)N1CC2 (stereo not drawn) | 744
42 | CCCNC(=O)C1CCCN(c2nc3ncn(CC(=O)NC4CCCC4)c(=O)c3s2)C1 (stereo not drawn) | 641
43 | COc1cccc(CNC(=O)N2CCN(C3=CC4=NC(C)CN4C=N3)CC2)c1 (stereo not drawn) | 649
44 | Cc1cc(C)n(-c2ccnc(N3CCC(C(=O)NCCc4cccs4)CC3)n2)n1 | 843
45 | COc1ccc2c(c1)[C@H]1OCCC[C@H]1C(c1cccc(O)c1)N2 (stereo partly drawn) | 793
46 | CCOC(=O)COc1cc(-c2ccc(C)cc2)nc2ccc(NC(=O)C3CCCC3)cc12 | 854
47 | Cc1cc(C)c2c(N3CCSCC3)nc(C(=O)NCCN3CCCCC3)nc2n1 | 559
48 | CCn1c(C(=O)NCCCN2CCOCC2)c(N2CCCC2=O)c2cc(F)ccc21 | 624
49 | Cc1ccc(CNC(=O)N2[C@H]3CC[C@@H]2c2cncnc2C3)cc1 | 735
50 | Cc1sc2ncnc(N3CCCCC3)c2c1C(=O)Nc1cc(F)c(F)c(F)c1 | 1230
51 | COc1ccc(NC(=O)N2CCCC(CN3CCc4ccccc4C3)C2)cc1OC (stereo not drawn) | 628
52 | Cc1sc(-c2noc(C3CC3)n2)cc1S(=O)(=O)N1CCC(C(=O)NC2CCCCC2)CC1 | 1020
53 | O=C(NC1CCCCCCC1)C1CCN(C(=O)c2cc(-c3ccncc3)n[nH]2)CC1 | 648
54 | Cc1cc(Cl)ccc1S(=O)(=O)N1CCC(F)(c2nc(CC(C)C)no2)CC1 | 1260
55 | CC(C)(C)C(=O)NCCN1C(=O)C2(CCCCC2)C1c1ccccc1 (stereo not drawn) | 903
56 | COc1ccc(OC)c(NC(=O)N2CCC(C)(C(=O)NCc3ccc4c(c3)OCO4)CC2)c1 | 806

The next lines start with the values.

Row | RP-LC retention time [s] | SMILES
57 | 940 | Brc1cn2c(Nc3ccc4c(c3)OCO4)c(-c3ccccc3)nc2cn1
58 | 978 | CC(C)CCNC(=O)C1(C)CN(S(=O)(=O)c2ccccc2)CC(=O)N1Cc1ccc(F)cc1 (stereo not drawn)
59 | 865 | O=C(Cn1ccn2nc(-c3ccccc3)c(CO)c2c1=O)Nc1ccccc1F
60 | 1100 | CN(C(=O)Cn1cccc1-c1nc(-c2ccccc2)no1)c1ccccc1
61 | 774 | CCS(=O)(=O)N1CCc2c(c(CN(C(=O)c3ccccc3F)c3ccccc3)nn2C)C1
62 | 847 | Cc1ccccc1Nc1c(-c2cccc(N(C)C)c2)nc2ccc(Br)cn12
63 | 1160 | CCc1ccc(-c2noc(Cn3c(=O)n(-c4ccc(Cl)cc4)c(=O)c4sccc43)n2)cc1
64 | 589 | CN1CCCC2C(c3ccccc3)C(C3=NCCCC3)C(c3ccccc3)CC21 (stereo not drawn)
65 | 782 | O=C(Cn1cnc2nc(N3CCCC3)ncc2c1=O)Nc1ccc(Cl)cc1C(F)(F)F
66 | 591 | Cc1cccc2nnc(N3CCC(C(=O)NCc4ccccc4F)CC3)n12
67 | 646 | CN(C)S(=O)(=O)c1ccc2c(c1)N(CC(=O)NCc1ccccn1)C(=O)C1CCCCN21 (stereo not drawn)
68 | 711 | Cc1nn(CC(=O)NC2CC2)c(=O)c2nc(-c3ccccc3)sc12
69 | 899 | O=C(Nc1ccc(F)c(Cl)c1)c1cc(=O)c(OCc2ccc(F)cc2)co1
70 | 743 | CC(=O)c1ccc(NC(=O)Cn2ccc3ccc(-c4nnc(C)o4)cc32)cc1
71 | 599 | CN(C)c1ccc(CNC(=O)CCC(=O)N2CCCn3nc(-c4cccn4C)cc32)cc1
72 | 940 | Cc1cccc2c(=O)n(C3CCN(S(=O)(=O)c4ccccc4F)CC3)cnc12

Row | RP-LC retention time [s] | SMILES
73 | 921 | Cc1cccc(-c2nc3c4ccccc4nc(N4CCN(c5ccccn5)CC4)n3n2)c1
74 | 614 | CCCNC(=O)C1CCN(c2ccc(SCC(=O)Nc3c(F)cccc3F)nn2)CC1
75 | 697 | Cc1cn(C2CC(O)C(CO)O2)c(=O)n(Cc2ccccc2)c1=O (stereo not drawn)
76 | 911 | COC(=O)C1=CN(c2ccc(F)cc2C)c2ccccc2S1(=O)=O
77 | 794 | Cc1ccc(Cl)cc1NC(=O)CSc1nc2ncccc2c(=O)n1CC1CCCO1 (stereo not drawn)
78 | 854 | Cc1cc2c(c(=O)n(-c3ccc(F)cc3)c(=O)n2CC(=O)Nc2ccc(F)c(Cl)c2)n1C
79 | 741 | Cc1ccccc1NC(=O)C1CCN(C(=O)C2Sc3ccccc3NC2=O)CC1 (stereo not drawn)
80 | 627 | CN1CCN(S(=O)(=O)c2ccc3nn(CCc4ccccc4)c(=O)n3c2)CC1
81 | 780 | Cc1cc(NC(=O)CSc2cc(-c3ccccc3)ncn2)no1
82 | 1110 | Cc1ccc2nc(-c3ccc(NC(=O)c4cnc5sccn5c4=O)cc3)sc2c1
83 | 703 | COc1ccc(-c2nnc(-c3ccccc3)o2)cc1S(=O)(=O)NCC(=O)O
84 | 914 | COc1ccc(-c2noc(-c3nn(-c4ccc(F)c(F)c4)ccc3=O)n2)cc1
85 | 703 | Cc1ccc(NC(=O)Cn2cnc3nc(N4CCC(C(=O)NC5CC5)CC4)sc3c2=O)cc1F
86 | 831 | O=C(Cn1ncc2c(c1=O)N(CC1CC1)C(=O)CS2)Nc1ccccc1C(F)(F)F
87 | 966 | Cc1nc(-c2noc(-c3ccc(F)cc3)n2)cn1CC(=O)Nc1ccc2c(c1)CCC2
88 | 673 | Cc1cc(=O)n(CC(=O)Nc2cccc(C)c2C)c(N2CCOCC2)n1
